Test results from PubChem BioAssay (NCI).
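Grown in 96-well plates, cells were treated for 48 hours with each compound at five concentrations. Insufficient inhibition: endpoint recorded as highest concentration tested. TGI denotes the concentration required for complete inhibition of growth.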

Legend:
Assay in all cases: DTP human tumour cell line panel, 48 h
SR leukemia = test system: SR leukemia
SK-OV-3 ovarian = test system: SK-OV-3 ovarian
LOX IMVI melanoma = test system: LOX IMVI melanoma
HCC-2998 colon = test system: HCC-2998 colon
MDA-N = test system: MDA-N
K-562 leukemia = test system: K-562 leukemia
MALME-3M melanoma = test system: MALME-3M melanoma
OVCAR-3 ovarian = test system: OVCAR-3 ovarian
A549 NSCLC = test system: A549 NSCLC
M19-MEL melanoma = test system: M19-MEL melanoma
RXF-631 renal = test system: RXF-631 renal
NCI-H226 lung = test system: NCI-H226 lung
HCT-15 colon = test system: HCT-15 colon
UACC-257 melanoma = test system: UACC-257 melanoma
HOP-92 NSCLC = test system: HOP-92 NSCLC
SK-MEL-5 melanoma = test system: SK-MEL-5 melanoma
SF-295 CNS = test system: SF-295 CNS
DMS 273 small cell lung = test system: DMS 273 small cell lung
DLD-1 colon = test system: DLD-1 colon
BT-549 breast = test system: BT-549 breast
SW-620 colon = test system: SW-620 colon
TK-10 renal = test system: TK-10 renal
CCRF-CEM leukemia = test system: CCRF-CEM leukemia
MOLT-4 leukemia = test system: MOLT-4 leukemia
COLO 205 colon = test system: COLO 205 colon
MDA-MB-435 = test system: MDA-MB-435
SNB-75 CNS = test system: SNB-75 CNS
SF-268 CNS = test system: SF-268 CNS
U251 CNS = test system: U251 CNS
UACC-62 melanoma = test system: UACC-62 melanoma
MCF7 breast = test system: MCF7 breast
HL-60(TB) leukemia = test system: HL-60(TB) leukemia
M14 melanoma = test system: M14 melanoma
KM20L2 colon = test system: KM20L2 colon
A498 renal = test system: A498 renal
SNB-19 CNS = test system: SNB-19 CNS
HOP-62 NSCLC = test system: HOP-62 NSCLC
RXF 393 renal = test system: RXF 393 renal
NCI/ADR-RES ovarian = test system: NCI/ADR-RES ovarian
DMS 114 small cell lung = test system: DMS 114 small cell lung
T-47D breast = test system: T-47D breast
OVCAR-4 ovarian = test system: OVCAR-4 ovarian
NCI-H23 lung = test system: NCI-H23 lung
RPMI-8226 leukemia = test system: RPMI-8226 leukemia
UO-31 renal = test system: UO-31 renal
SK-MEL-28 melanoma = test system: SK-MEL-28 melanoma
HCT-116 colon = test system: HCT-116 colon
ACHN renal = test system: ACHN renal
OVCAR-5 ovarian = test system: OVCAR-5 ovarian
LXFL 529 NSCLC = test system: LXFL 529 NSCLC
786-0 renal = test system: 786-0 renal
HS 578T breast = test system: HS 578T breast
SF-539 CNS = test system: SF-539 CNS
KM12 colon = test system: KM12 colon
HT29 colon = test system: HT29 colon
SN12C renal = test system: SN12C renal
MDA-MB-231 breast = test system: MDA-MB-231 breast
SK-MEL-2 melanoma = test system: SK-MEL-2 melanoma
EKVX NSCLC = test system: EKVX NSCLC
OVCAR-8 ovarian = test system: OVCAR-8 ovarian
IGROV1 ovarian = test system: IGROV1 ovarian
NCI-H522 lung = test system: NCI-H522 lung
DU-145 prostate = test system: DU-145 prostate
CAKI-1 renal = test system: CAKI-1 renal
NCI-H460 lung = test system: NCI-H460 lung
SNB-78 CNS = test system: SNB-78 CNS
PC-3 prostate = test system: PC-3 prostate
HOP-18 NSCLC = test system: HOP-18 NSCLC
XF 498 CNS = test system: XF 498 CNS

## COC1=CC(=O)c2c(ccc3ncnc(N)c23)C1=O
SR leukemia
  TGI: 0.631 µM
SK-OV-3 ovarian
  TGI: 16.3 µM
LOX IMVI melanoma
  TGI: 2.68 µM
HCC-2998 colon
  TGI: 15.1 µM
MDA-N
  TGI: 0.889 µM
K-562 leukemia
  TGI: 1.58 µM
MALME-3M melanoma
  TGI: 5.43 µM
OVCAR-3 ovarian
  TGI: 3.03 µM
A549 NSCLC
  TGI: 8.75 µM
M19-MEL melanoma
  TGI: 3.14 µM
RXF-631 renal
  TGI: 16.4 µM
NCI-H226 lung
  TGI: 4.6 µM
HCT-15 colon
  TGI: 4.13 µM
UACC-257 melanoma
  TGI: 3.69 µM
HOP-92 NSCLC
  TGI: 4 µM
SK-MEL-5 melanoma
  TGI: 3.12 µM
SF-295 CNS
  TGI: 6.76 µM
DMS 273 small cell lung
  TGI: 10.7 µM
DLD-1 colon
  TGI: 4.44 µM
BT-549 breast
  TGI: 3.2 µM
SW-620 colon
  TGI: 4.03 µM
TK-10 renal
  TGI: 8.75 µM
CCRF-CEM leukemia
  TGI: 1.95 µM
MOLT-4 leukemia
  TGI: 1.5 µM
COLO 205 colon
  TGI: 6.77 µM
MDA-MB-435
  TGI: 0.646 µM
SNB-75 CNS
  TGI: 6.62 µM
SF-268 CNS
  TGI: 6.72 µM
U251 CNS
  TGI: 3.39 µM
UACC-62 melanoma
  TGI: 3.42 µM
MCF7 breast
  TGI: 4.12 µM
HL-60(TB) leukemia
  TGI: 1.49 µM
M14 melanoma
  TGI: 3.38 µM
KM20L2 colon
  TGI: 34.7 µM
A498 renal
  TGI: 3.9 µM
SNB-19 CNS
  TGI: 5.47 µM
HOP-62 NSCLC
  TGI: 6.54 µM
RXF 393 renal
  TGI: 3.3 µM
NCI/ADR-RES ovarian
  TGI: 6.39 µM
DMS 114 small cell lung
  TGI: 3.43 µM
T-47D breast
  TGI: 3.42 µM
OVCAR-4 ovarian
  TGI: 1.28 µM
NCI-H23 lung
  TGI: 3.76 µM
RPMI-8226 leukemia
  TGI: 3.62 µM
UO-31 renal
  TGI: 5.09 µM
SK-MEL-28 melanoma
  TGI: 4.94 µM
HCT-116 colon
  TGI: 3.33 µM
ACHN renal
  TGI: 3.16 µM
OVCAR-5 ovarian
  TGI: 3.81 µM
LXFL 529 NSCLC
  TGI: 3.2 µM
786-0 renal
  TGI: 3.35 µM
HS 578T breast
  TGI: 7.52 µM
SF-539 CNS
  TGI: 3.41 µM
KM12 colon
  TGI: 11.3 µM
HT29 colon
  TGI: 4.44 µM
SN12C renal
  TGI: 3.42 µM
MDA-MB-231 breast
  TGI: 4.8 µM
SK-MEL-2 melanoma
  TGI: 7.08 µM
EKVX NSCLC
  TGI: 4.03 µM
OVCAR-8 ovarian
  TGI: 7.59 µM
IGROV1 ovarian
  TGI: 3.41 µM
NCI-H522 lung
  TGI: 5.62 µM
DU-145 prostate
  TGI: 3.34 µM
CAKI-1 renal
  TGI: 3.27 µM
NCI-H460 lung
  TGI: 12.6 µM
SNB-78 CNS
  TGI: 4.89 µM
PC-3 prostate
  TGI: 6.53 µM

## O=C1C=CC(=O)c2c(O)ccc(O)c21
SR leukemia
  TGI: 1.75 µM
SK-OV-3 ovarian
  TGI: 27.5 µM
LOX IMVI melanoma
  TGI: 3.8 µM
HCC-2998 colon
  TGI: 10.5 µM
MDA-N
  TGI: 8.18 µM
K-562 leukemia
  TGI: > 25 µM
MALME-3M melanoma
  TGI: 2.39 µM
OVCAR-3 ovarian
  TGI: 5.87 µM
A549 NSCLC
  TGI: 33.1 µM
M19-MEL melanoma
  TGI: 1.49 µM
NCI-H226 lung
  TGI: 18.5 µM
HCT-15 colon
  TGI: 1.65 µM
UACC-257 melanoma
  TGI: 2.45 µM
HOP-92 NSCLC
  TGI: 3.21 µM
SK-MEL-5 melanoma
  TGI: 6.08 µM
HOP-18 NSCLC
  TGI: 2.17 µM
SF-295 CNS
  TGI: 16.1 µM
DMS 273 small cell lung
  TGI: 7.55 µM
DLD-1 colon
  TGI: 0.891 µM
BT-549 breast
  TGI: 4.8 µM
SW-620 colon
  TGI: 1.1 µM
TK-10 renal
  TGI: 2.75 µM
CCRF-CEM leukemia
  TGI: 0.966 µM
MOLT-4 leukemia
  TGI: 4.45 µM
COLO 205 colon
  TGI: 1.66 µM
MDA-MB-435
  TGI: 13.1 µM
SNB-75 CNS
  TGI: 6.98 µM
SF-268 CNS
  TGI: 8.39 µM
U251 CNS
  TGI: 14.8 µM
UACC-62 melanoma
  TGI: 3.95 µM
MCF7 breast
  TGI: 6.59 µM
HL-60(TB) leukemia
  TGI: 0.831 µM
M14 melanoma
  TGI: 1.32 µM
KM20L2 colon
  TGI: 4.97 µM
A498 renal
  TGI: 7.78 µM
SNB-19 CNS
  TGI: 16.6 µM
HOP-62 NSCLC
  TGI: 19.3 µM
RXF 393 renal
  TGI: 2.02 µM
NCI/ADR-RES ovarian
  TGI: 3.72 µM
DMS 114 small cell lung
  TGI: 5.27 µM
T-47D breast
  TGI: 4.61 µM
OVCAR-4 ovarian
  TGI: 4.97 µM
NCI-H23 lung
  TGI: 7.39 µM
UO-31 renal
  TGI: 4.69 µM
SK-MEL-28 melanoma
  TGI: 2.76 µM
HCT-116 colon
  TGI: 2.39 µM
XF 498 CNS
  TGI: 3.07 µM
ACHN renal
  TGI: 2.67 µM
OVCAR-5 ovarian
  TGI: 13.1 µM
LXFL 529 NSCLC
  TGI: 1.64 µM
786-0 renal
  TGI: 2.55 µM
HS 578T breast
  TGI: 6.57 µM
SF-539 CNS
  TGI: 5.84 µM
KM12 colon
  TGI: 13 µM
HT29 colon
  TGI: 5.68 µM
SN12C renal
  TGI: 3.08 µM
MDA-MB-231 breast
  TGI: 6.64 µM
SK-MEL-2 melanoma
  TGI: 17.4 µM
EKVX NSCLC
  TGI: 7.4 µM
OVCAR-8 ovarian
  TGI: 2.05 µM
IGROV1 ovarian
  TGI: 15.5 µM
NCI-H522 lung
  TGI: 1.16 µM
DU-145 prostate
  TGI: 28 µM
CAKI-1 renal
  TGI: 2.82 µM
NCI-H460 lung
  TGI: 9.79 µM
SNB-78 CNS
  TGI: 6.37 µM
PC-3 prostate
  TGI: 29.5 µM
